Results reported in patent US7094405B1, “Peptides which elicit a high neutralizing antibody titer, cytotoxic T lymphocyte response and T helper cell response in a broad range of MHC type recipients” (priority 1986, dated 2006).
Where two headings read alike, the source gives them in different places.

Key:
[1] = system: peripheral blood lymphocytes of HIV-positive, influenza positive humans; conditions: cited from earlier work; for tested cases with significant IL-2 responses: peripheral blood lymphocytes of HIV-positive, influenza positive humans, previous study (42)
[2] = system: gp160-expressing 15-12 BALB/c fibroblast cell line; format: cell-based; conditions: spleen cells of B10.A(5R) mice immunized with 20 nmoles PCLUS4-18, restimulated 6 days
Procedure: The resulting effector cells were tested on the gp160-expressing 15-12 BALB/c fibroblast cell line or on neo-only transfected fibroblast cells (not shown) as targets (FIG. 9B). […] SEM of triplicate wells was less than 7.3% of the mean.

HIV-1 IIIB = assay: Neutralization of HIV-1 IIIB by immune sera, quantitative infectivity microassay using CEM-SS cells; format: in vivo; conditions: 31 days after single immunization with 20 nanomole peptide
Procedure: (§1) Immunizations. Mice were immunized intraperitoneally with 20 nanomoles of each peptide emulsified 1:1 in Freund's Complete Adjuvant (CFA). At days 21 and 31 post immunization blood was drawn by retroorbital bleed, allowed to clot and the serum removed and frozen at −20° C.
Neutralization assays of HIV-1. The quantitative infectivity microassay using CEM-SS cells was performed as described previously (52). […] The mixtures were added to duplicate wells containing 5×10^4 DEAE-dextran treated CEM-SS cells for 1 h at 37° C., after which the virus-antibody mixtures were removed and replaced with medium, and the cells cultured only in complete medium for 5 days (for HIV-1 IIIB) or 4 days (for HIV-1 MN, determined to be optimal for each virus strain) at 37° C. in 5% CO2. Units of infectious virus were quantitated by subsequent syncytia formation of infected cells under an inverted microscope. […] The assay measures neutralization of cell-free virus in the first incubation, not inhibition of syncytium formation, which is only the readout for enumerating infectious virus. […]

[3] = system: BALB/c.3T3 transfectants expressing the whole gp160 protein (cell line 15-12) or P18 pulsed 18neo cells; format: in vivo, mice
Procedure: Mice 8-20 weeks old were immunized subcutaneously at the tail base with 20 nmoles of each peptide mixed with QS21 (15 μg), the highly purified saponin fraction from the soap bark tree Quillaja saponaria, which retains the greatest adjuvant activity but is non-toxic (103). […] Cytolytic activity of in vitro secondary CTL was measured as described previously (104) using a 6 hr. assay with ^51Cr-labeled targets. […] Maximum release was determined from supernatants of cells that were lysed by the addition of 5% Triton X-100. Spontaneous release was determined from targets cells incubated without added effectors cells. The assay was performed in triplicate, with 5000 target cells per well.
Background lysis on control 18neo fibroblasts in the absence of peptide was less than 8%. SEM of triplicate wells was less than 7.2% of the mean.

Peptide 18 = conditions: for ELISA: Mean p18 Specific Absorbance ± S.E.M.: 31 days after single immunization with 20 nanomole peptide, 5 mouse sera at 1:1000 serum dilution
Procedure: ELISA. Wells of round bottom flexible PVC microtiter plates (#3912 Falcon Labware, Oxnard, Calif.) were coated overnight at 4° C. with 100 μl of 10 μM Peptide 18, substituted peptide 18, cluster peptide 3, cluster peptide 6, 0.2 μg/ml recombinant gp 120 (ABT, Advanced Biotechnologies, Mass.) or 2 μM sperm whale myoglobin in 0.1 M carbonate buffer pH 9.6. […] The plates were blocked with 1% BSA in phosphate buffered saline (PBS) for 1-1.5 h. at 4° C. and washed with PBS containing 0.05% Tween 20 and 1% BSA (PBSTB). Next, 100 μl of test serum was added to duplicate wells and incubated for 1-1.5 h. at 4° C. Test sera were assayed at 10 fold dilutions in PBSTB ranging from 1:100-1:10,000. The wells were then washed with 200 μl PBSTB 10 times using an automatic plate washer (BioRad Model 1550) and incubated for 1 h at 4° C. with 100 μl alkaline phosphatase-conjugated goat anti-mouse IgG (Promega, Madison, Wis.) diluted 1:7500 in PBSTB. After 10 washes, bound antibodies were detected by the addition of 100 μl of 1 mg/ml paranitrophenyl phosphate as substrate. The optical density at 405 nm was read with an ELISA reader. Specific absorbance was determined as the mean optical density at 405 nm on the relevant antigen coated wells minus the optical density 405 nm on nonrelevant sperm whale myoglobin coated wells.
as §1

EQMHEDIISLWDQSLKPCVK [PCLUS 1]
donors in which IL-2 production was stimulated ([1]; HIV seropositive, flu-positive donors): 23 of 36
tested cases with significant IL-2 responses [1]: 64%

KQIINMWQEVGKAMYAPPISGQIR [PCLUS3]
tested cases with significant IL-2 responses [1]: 73%

RDNWRSELYKYKVVKIEPLGVAPT [PCLUS4]
induction of CTL activity on in vitro restimulation (in words) [2]: did not induce any CTL activity
tested cases with significant IL-2 responses [1]: 52%

RIQRGPGRAFVTIGK [Peptide P18]
No. of mice with positive neutralizing titers/total tested (HIV-1 IIIB; B10.BR or B10.A (A^kE^k) mice): (0/5)
No. of mice with positive neutralizing titers/total tested (HIV-1 IIIB; BALB/c or B10.D2 (A^dE^d) mice): (0/5)
CTL activity, linkage requirement experiment (in words) ([3]; B10.D2 (PCLUS3 series) or B10.A(5R) (PCLUS4 series) mice, QS21, restimulated with 0.1 μM P18 and rIL2): negligible
CTL activity after single immunization in QS21 (in words) ([3]; B10.D2, B10.A(5R), B10.S(9R) mice, restimulated with P18, E:T up to 60:1): only marginal CTL activity
induction of CTL activity on in vitro restimulation (in words) [2]: not
ELISA: Mean p18 Specific Absorbance ± S.E.M. (Peptide 18; B10.A(5R) (A^bE^b) mice): 0.00
ELISA: Mean p18 Specific Absorbance ± S.E.M. (Peptide 18; B10.BR or B10.A (A^kE^k) mice): 0.00
ELISA: Mean p18 Specific Absorbance ± S.E.M. (Peptide 18; B10.HTT (A^aE^a) mice): 0.00
ELISA: Mean p18 Specific Absorbance ± S.E.M. (Peptide 18; BALB/c or B10.D2 (A^dE^d) mice): 0.00
peptide 18 specific antibody response (in words) (Peptide 18; mice of four strains immunized with 20 nanomoles of construct): no peptide 18 specific antibody was detected

AVAEGTDRVIEVVQGAYRAIRHIPRRIRQGLER [PCLUS6]
tested cases with significant IL-2 responses [1]: 58%
